Results on one compound are retold here after US20190106697A1, “Inhibition Of Lactate Transporters For Use In The Treatment Of Inflammatory Diseases” (Queen Mary University of London, priority 2014, published 2019).

Common to all, as to assay type: cell-based, mouse
The test system of experiment [1] is activated CD8+ T-cells. Description: In vitro chemokinesis of activated CD8+ T-cells towards CXCL10 (transwell). From the text: (§1) T-cell isolation, in-vitro activation and subset enrichment: T-cells were isolated from C57BL/6 murine lymph nodes and activated for 3 to 5 days with plate bound anti-CD3 and anti-CD28 antibodies (BioLegend), and IL-2 (PeproTech). CD4+ and CD8+ subsets were enriched with commercially available CD4+ and CD8+ T-cell isolation kits according to the manufacturer's instructions (Easysep, Invitrogen) either prior or post activation according to experimental settings. Chemokinesis assays: Chemokinesis assays were performed in 5 μm transwell inlays. In some experiments, T-cells were pre-treated overnight with a number of drugs purchased from Calbiochem: Rapamycin (200 nM), 2-DG (1 mM), Metformin (2 mM). […] 3×10^6 lymphocytes were seeded in the upper transwell chamber; chemokines were added to the lower chamber: CXCL10 (300 ng/ml), CCL5 (50 ng/ml), CCL19/21 (200 ng/ml of each chemokine). Migrated T-cells were counted with a hemocytometer 2, 4 and 6 hours after seeding and % of migrated cells was calculated.

The test system of the next experiment is CD8+ cytotoxic T-cells. Nature of the experiment: CTL cytotoxicity assay with allogeneic endothelial cells. The note with it: 10 mM. As to the method:
CTL differentiation and activity assay: Isolated CD8+ T-cells (balb/c) were incubated with CD3-depleted and mytomycin-C-eradicated allogeneic splenocytes (C57BL/6). […] Dead cells were counted using trypan blue exclusion assay 2, 4, 6 and 18 hours after the start of the assay.

Experiment [2] relates to activated CD4+ T-cells. Description: CCL5-induced chemokinesis of activated CD4+ T-cells. The conditions noted are these: 10 mM; CCL5 50 ng/ml.
Excerpt: as §1

The subject of experiment [3] is activated CD4+ T-cells. Description: In vitro chemokinesis of activated CD4+ T-cells towards CXCL10 (transwell). The note with it: 10 mM lactic acid or sodium lactate, CXCL10 300 ng/ml.
Excerpt: as §1

The test system of experiment [4] is activated CD8+ T-cells. Nature of the experiment: Glucose uptake and flux with 2-NBDG / 6-NBDG in CD8+ T-cells. The note with it: 2-NBDG and 6-NBDG probes. On the procedure: Measurement of lactate, glycolysis, glucose uptake/flux and cell death: Lactate concentration was measured in the synovial fluid or peritoneal lavage using the Lactate assay Kit (Biovision), according to the manufacturer's instructions. Glycolytic metabolism was measured with a Seahorse XF24 Extracellular Flux Analyzer. Briefly, T-cells were grown in high glucose RPMI-1640 supplemented with 10% FCS. […] T-cell viability upon lactate or metabolic drug treatment was assessed by trypan blue exclusion assay.

The structures appear in SMILES notation.

As to `CC(O)C(=O)O` (stereo not shown) [lactic-acid], in the experiment with activated CD8+ T-cells [1] (10 mM lactic acid or sodium lactate, CXCL10 300 ng/ml), the “CXCL10-induced chemokinesis of activated CD8+ T-cells” value is recorded as “inhibited”. Moreover, the “chemokinesis of CD8+ T-cells, culture media buffered to neutral pH” value in the experiment with activated CD8+ T-cells [1] (lactic-acid with bicarbonate or HEPES to reach a neutral pH) was “still impaired”. The “cytolytic activity of CTLs” value with CD8+ cytotoxic T-cells was “inhibited”. Also, in the experiment with activated CD4+ T-cells [2], the “CCL5-induced migration of CD4+ T-cells” value is on record as “not”. Also, the “CXCL10-induced chemokinesis of activated CD4+ T-cells” value in the experiment with activated CD4+ T-cells [3] is reported as “not vice versa”; in the experiment on activated CD4+ T-cells [3] (listed as lactic acid), “not affected”. Also, in the experiment with activated CD8+ T-cells [4], the “glucose uptake and flux through glycolysis in CD8+ T-cells” value is reported as “vice versa”.
